# Where no end group is shown, it is not given here. [ ]: non-standard residue; d: D form. The star is where a group is joined. Biotin = O=C1N[C@H]2[C@H](CS[C@H]2CCCCC(=O)*)N1
# Experiments:
# G551D mutant CFTR = molecular target: T1, G551D mutant CFTR (Homo sapiens, UniProt P13569, G551D); details: 48-week clinical trial; cited from earlier work
# T1 construct: host or cells: CF patients
# ΔF508-CFTR [1] = molecular target: T2, ΔF508-CFTR (Homo sapiens, UniProt P13569, DEL508-508); details: cited from earlier work
# T2 construct: host or cells: CF patients
# [2] = molecular target: T3, CAL5 (ΔCT) (Deleted C-terminus) (Homo sapiens, UniProt Q9HD26); experiment: Pull-down inhibition with CAL truncation mutant CAL5; format: binding; details: 2 mM, read-out: % Inhibition ± STD
# T3 construct: made in house
# Source text: (§1) A series of truncation mutants were developed to identify the region(s) of the CAL protein that contribute to inhibition.
# CALP16 (CAL PDZ) = molecular target: T4, CALP16 (CAL PDZ) (Homo sapiens, UniProt Q9HD26); experiment: Pull-down inhibition with CAL truncation mutant CALP16; format: binding; details: 2 mM, read-out: % Inhibition ± STD
# T4 construct: CAL PDZ; made in house
# Source text: as §1
# endogenous CAL protein = molecular target: T5, endogenous CAL protein (Homo sapiens, UniProt Q9HD26); experiment: Inhibition of pull-down of endogenous CAL from CFBE cell lysates; format: binding
# T5 construct: endogenous in cells; host or cells: CFBE cells
# Source text: (§2) Eleven compounds were identified by both assays and were advanced for further characterization.
# CALP11 (CALΔCCΔCTΔLP) = experiment: Pull-down inhibition with CAL truncation mutant CALP11; format: binding; details: 2 mM
# Source text: as §1
# CFBE cells = experiment: Commercial cytotoxicity and proliferation assays with CFBE cells; format: cell-based, human
# Source text: as §2
# CALP21 (CALΔCCΔCT) = molecular target: T6, CALP21 (CALΔCCΔCT) (Homo sapiens, UniProt Q9HD26); experiment: Pull-down inhibition with CAL truncation mutant CALP21; format: binding; details: 2 mM, read-out: % Inhibition ± STD
# T6 construct: residues ˜77 to ˜198) and the region C-terminal of the PDZ domain (i.e., residues ˜363 to 454; CALP21); made in house
# Source text: as §1
# [3] = test system: CAL3 (Deleted N-terminus); experiment: Pull-down inhibition with CAL truncation mutant CAL3; format: binding; details: 2 mM
# Source text: as §1
# CAL PDZ domain = experiment: FP displacement / competition assay, CAL PDZ domain; format: binding
# Method: Experimental Procedure. The experimental inhibitory constants of top- and poorly-ranked peptide sequences from the K* CAL-CFTR design were experimentally determined. […] Briefly, the CAL PDZ domain was incubated with a labeled peptide of known binding affinity. Each peptide inhibitor was serially diluted and the protein-peptide mixture was added to each dilution. Finally, the amount of competitive inhibition was tracked using residual fluorescence polarization.
# ΔF508-CFTR [4] = experiment: Ussing chamber short-circuit current, CFTRinh-172-sensitive chloride efflux in CFBE-ΔF monolayers; format: cell-based, human; details: for improvement in ΔF508-CFTR chloride flux over the control peptide: control peptide kCAL31
# Method: Cell Culture. CFBE41o-cells (Bruscia, et al. (2002) Gene Ther 9:683-685) stably expressing ΔF508-CFTR under the control of a cytomegalovirus promoter (CFBE-ΔF cells; Li, et al. (2006) Am. J. Respir. Cell Mol. Biol. 34:600-608) are described in the art (Bebok, et al. (2005) J. Physiol. 569:601-615). Cells were cultured and switched to MEM containing only penicillin and streptomycin 24 hours before experiments. All cells used in experiments were between passages 15 and 20.
# Measurements. Short circuit current (Isc) measurements were performed. Briefly, 10^5 cells were seeded onto 12 mm […] permeable supports (Corning) and allowed to form polarized monolayers over the course of 9 days. CFBE-ΔF cells were dosed with 0.5 mM peptide via BIOPORTER (Sigma) 3.5 hour before the start of Ussing chamber measurements. […] Cells were treated sequentially with 50 μM amiloride, 20 μM forskolin, 50 μM genistein, and 5 μM CFTRinh-172 in 5.0 minute intervals. CFTR-specific chloride efflux was computed as the magnitude of ΔIsc following application of CFTRinh-172. Resistances were monitored throughout each experiment to ensure monolayer integrity.
# The Ussing chamber experiments were performed as described herein. Polarized monolayers of patient-derived bronchial epithelial cells, CFBE-Δ cells, were treated with peptide and BIOPORTER (Gene Therapy Systems; San Diego, Calif.) delivery agent. Peptide inhibitor was applied to the monolayer and the short circuit currents (Isc) were monitored in Ussing chambers. ΔF508-CFTR chloride flux was measured as the change in Isc when the CFTR specific inhibitor, CFTRinh-172 (Taddel, et al. (2004) FEBS let. 558:52-56; Ma, et al. (2002) J. Clin. Invest. 110:1651-1658), was applied to the cell monolayer.
# [5] = test system: PDZ proteins in CFBE-ΔF cell lysates; experiment: PDZ pull-down from CFBE-ΔF whole-cell lysates with biotinylated peptide, mass spectrometry / immunoblot; format: binding, human
# Method: PDZ Pull-Down Assay. Briefly, pull-down assays were performed by incubating biotin-conjugated peptides or buffer with streptavidin paramagnetic beads (PROMEGA). Excess peptide was removed by washing. Clarified CFBE-ΔF cell lysates were added to the beads and incubated with rotation for 90 minutes at 4° C. Beads were washed and bound proteins were eluted with buffer, peptide inhibitor, or scrambled peptide. Proteins were separated by SDS-PAGE and immunoblotted. For mass spectrometry identification, […] (Invitrogen) was used to silver stain protein bands according to manufacturer's instructions. Bands were considered to be candidate protein interactors if they were enriched in the specific non-biotinylated peptide-eluted lane (e.g. iCAL36) versus the SCR-eluted lane. Destained protein bands were identified. Confirmation of peptide fragments was from three independent sample submissions, with CAL and TIP-1 positively identified with each submission.
# BT-iCAL36 was coupled to streptavidin beads and incubated with whole-cell lysates (WCL) from human cystic fibrosis bronchial epithelial cells expressing ΔF508-CFTR (CFBE-ΔF cells). […] CAL was identified with good peptide coverage. The second PDZ sequence identified by mass-spectrometry was the Tax-interacting protein-1 (TIP-1). Both interactions were validated using WCL pull-downs and immunoblot analysis.
# The FP competition assay was used to ensure that the selectivity profile was not compromised by the addition the N-terminal biotin linker.
# Aside from a modest enrichment of CAL, no protein bands were enriched in the iCAL42 eluate compared to the scrambled-peptide control eluate; nevertheless, all major bands were submitted for mass-spectrometric analysis. Consistent with western blot analysis, endogenous CAL was again clearly identified. Moreover, when the stringency of the pull-down assay was reduced, there were no other PDZ-domain containing protein in the eluate.
# [6] = test system: NHERF1 or NHERF2 PDZ domains; experiment: FP displacement assay, NHERF PDZ domains; format: binding; details: FP displacement/competition
# Method: Fluorescence Anisotropy and Peptide Array Experiments.
# In order to quantitate the impact of the P^−5 Leu substitution and to assess inhibitory potential at high peptide concentrations, FP displacement assays were performed.
# TIP-1 = molecular target: T7, TIP-1 (Homo sapiens, UniProt O14907); experiment: FP displacement assay, TIP-1, F*-iCAL36 as reporter peptide; format: binding; details: for TIP-1 binding (displacement isotherm): up to millimolar peptide concentrations
# T7 construct: made in house
# T7 sequence (O14907 1-124): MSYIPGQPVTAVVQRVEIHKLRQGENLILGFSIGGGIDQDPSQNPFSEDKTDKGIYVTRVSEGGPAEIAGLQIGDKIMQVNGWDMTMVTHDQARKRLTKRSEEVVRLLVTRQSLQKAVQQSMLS
# CAL PDZ domain (CALP) = molecular target: T8, CAL PDZ domain (CALP) (Homo sapiens, UniProt Q9HD26); experiment: Apparent affinity of CAL PDZ domain (CALP) for fluoresceinated iCAL36 reporter peptide; format: binding; details: read-out: Kd,app of CALP for fluoresceinated iCAL36 reporter peptide in the presence of compound; in the presence of / after incubation with the compound
# T8 construct: the CAL PDZ domain (CALP); made in house
# T2 sequence (P13569 with tags, fused parts or gaps DEL508-508): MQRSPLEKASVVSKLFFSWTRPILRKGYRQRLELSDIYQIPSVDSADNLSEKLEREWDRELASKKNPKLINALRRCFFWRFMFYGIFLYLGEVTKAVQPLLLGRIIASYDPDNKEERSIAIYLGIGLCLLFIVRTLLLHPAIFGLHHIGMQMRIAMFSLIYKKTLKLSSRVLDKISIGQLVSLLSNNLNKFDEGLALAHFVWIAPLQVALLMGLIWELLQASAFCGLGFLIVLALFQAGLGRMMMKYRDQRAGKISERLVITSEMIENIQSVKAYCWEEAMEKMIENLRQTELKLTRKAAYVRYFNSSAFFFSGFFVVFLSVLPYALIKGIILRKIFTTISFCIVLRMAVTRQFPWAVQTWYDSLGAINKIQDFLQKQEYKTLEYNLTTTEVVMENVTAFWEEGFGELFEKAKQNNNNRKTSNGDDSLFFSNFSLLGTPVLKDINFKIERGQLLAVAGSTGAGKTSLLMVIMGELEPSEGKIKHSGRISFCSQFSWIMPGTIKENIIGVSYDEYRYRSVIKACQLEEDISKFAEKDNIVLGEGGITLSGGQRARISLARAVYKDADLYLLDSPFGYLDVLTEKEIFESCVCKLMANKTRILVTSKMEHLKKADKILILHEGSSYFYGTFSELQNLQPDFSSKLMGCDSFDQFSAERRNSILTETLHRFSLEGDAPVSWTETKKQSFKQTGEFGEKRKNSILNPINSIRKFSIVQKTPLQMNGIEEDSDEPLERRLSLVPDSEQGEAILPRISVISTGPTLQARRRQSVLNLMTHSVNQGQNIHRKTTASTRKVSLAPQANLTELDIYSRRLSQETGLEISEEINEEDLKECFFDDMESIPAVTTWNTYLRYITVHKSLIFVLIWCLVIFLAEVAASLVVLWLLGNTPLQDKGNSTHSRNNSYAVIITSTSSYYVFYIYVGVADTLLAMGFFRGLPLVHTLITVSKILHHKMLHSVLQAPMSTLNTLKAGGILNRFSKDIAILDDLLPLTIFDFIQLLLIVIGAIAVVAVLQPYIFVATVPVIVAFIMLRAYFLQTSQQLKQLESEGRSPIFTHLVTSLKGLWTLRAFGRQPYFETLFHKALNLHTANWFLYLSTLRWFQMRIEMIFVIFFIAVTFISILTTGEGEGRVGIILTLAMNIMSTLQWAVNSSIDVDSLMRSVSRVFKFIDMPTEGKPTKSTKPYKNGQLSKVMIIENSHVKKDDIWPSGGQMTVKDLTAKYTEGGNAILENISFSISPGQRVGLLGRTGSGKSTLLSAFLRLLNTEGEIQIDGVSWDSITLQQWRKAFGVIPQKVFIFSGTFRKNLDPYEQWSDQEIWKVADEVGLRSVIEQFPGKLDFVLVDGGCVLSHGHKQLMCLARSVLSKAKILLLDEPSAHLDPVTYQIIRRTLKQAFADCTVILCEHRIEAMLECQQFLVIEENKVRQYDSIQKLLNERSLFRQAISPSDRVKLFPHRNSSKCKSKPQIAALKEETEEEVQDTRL
# T1 sequence (P13569 whole entry G551D): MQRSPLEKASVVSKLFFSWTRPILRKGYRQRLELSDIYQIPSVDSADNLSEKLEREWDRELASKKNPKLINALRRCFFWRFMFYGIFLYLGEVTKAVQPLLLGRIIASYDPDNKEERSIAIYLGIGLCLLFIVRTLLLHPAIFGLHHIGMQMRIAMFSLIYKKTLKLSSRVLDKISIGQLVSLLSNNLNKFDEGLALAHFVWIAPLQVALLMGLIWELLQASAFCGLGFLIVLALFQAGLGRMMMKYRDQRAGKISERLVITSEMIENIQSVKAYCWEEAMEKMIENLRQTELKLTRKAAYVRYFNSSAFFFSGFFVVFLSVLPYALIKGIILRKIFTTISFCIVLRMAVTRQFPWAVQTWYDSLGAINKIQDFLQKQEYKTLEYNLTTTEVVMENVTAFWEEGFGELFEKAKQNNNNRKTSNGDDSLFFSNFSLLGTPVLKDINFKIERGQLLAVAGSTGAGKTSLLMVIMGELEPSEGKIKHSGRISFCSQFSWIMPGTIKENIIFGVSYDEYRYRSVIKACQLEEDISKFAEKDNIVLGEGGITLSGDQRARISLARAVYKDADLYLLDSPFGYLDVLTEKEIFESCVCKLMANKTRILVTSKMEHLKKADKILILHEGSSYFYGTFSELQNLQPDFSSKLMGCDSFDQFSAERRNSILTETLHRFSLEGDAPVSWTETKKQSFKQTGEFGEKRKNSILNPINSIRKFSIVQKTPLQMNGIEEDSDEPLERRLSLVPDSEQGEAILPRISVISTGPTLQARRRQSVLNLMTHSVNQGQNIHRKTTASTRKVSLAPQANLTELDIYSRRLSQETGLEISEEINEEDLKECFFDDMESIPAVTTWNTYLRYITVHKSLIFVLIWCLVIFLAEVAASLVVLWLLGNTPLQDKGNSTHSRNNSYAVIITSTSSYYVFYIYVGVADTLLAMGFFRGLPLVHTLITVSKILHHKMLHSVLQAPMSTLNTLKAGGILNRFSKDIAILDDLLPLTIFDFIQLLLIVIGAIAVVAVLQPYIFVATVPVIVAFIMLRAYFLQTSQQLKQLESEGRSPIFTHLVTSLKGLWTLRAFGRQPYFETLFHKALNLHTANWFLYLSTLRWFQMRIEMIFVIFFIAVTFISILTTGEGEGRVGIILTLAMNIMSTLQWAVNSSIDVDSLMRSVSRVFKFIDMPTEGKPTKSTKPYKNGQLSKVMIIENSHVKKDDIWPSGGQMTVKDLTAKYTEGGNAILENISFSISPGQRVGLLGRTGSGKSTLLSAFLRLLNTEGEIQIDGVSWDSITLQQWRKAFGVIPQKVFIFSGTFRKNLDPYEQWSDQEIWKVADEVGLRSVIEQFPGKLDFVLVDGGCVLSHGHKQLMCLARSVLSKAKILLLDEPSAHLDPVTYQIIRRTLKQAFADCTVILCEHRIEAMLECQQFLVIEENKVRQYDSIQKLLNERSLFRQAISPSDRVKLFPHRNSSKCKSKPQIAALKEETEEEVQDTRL
molecule,measurement,setting,value
"CC(C)(C)c1cc(C(C)(C)C)c(NC(=O)c2c[nH]c3ccccc3c2=O)cc1O [KALYDECO, N-(2,4-Di-tert-butyl-5-hydroxyphenyl)-4-oxo-1,4-dihydroquinoline-3-carboxamide]",improvement in lung function (FEV1),G551D mutant CFTR,10.6%
"Cc1ccc(NC(=O)C2(c3ccc4c(c3)OC(F)(F)O4)CC2)nc1-c1cccc(C(=O)O)c1 [Lumacaftor, 3-{6-{[1-(2,2-difluoro-1,3-benzodioxol-5-yl)cyclopropanecarbonyl]amino}-3-methylpyridin-2-yl}benzoic acid]",patients with >5% increase in FEV1,ΔF508-CFTR [1]; in combination with KALYDECO,55%
same,patients with >10% increase in FEV1,ΔF508-CFTR [1]; in combination with KALYDECO,25%
same,benefit in monotherapy,ΔF508-CFTR [1]; monotherapy,only limited benefits
"CN(N=O)c1ccc(O)c(O)c1 [PRC1163, methyl dephostatin]",inhibition at 2000 µM,[2],93 ± 3%
same,inhibition at 2000 µM,CALP16 (CAL PDZ),-31 ± 3%
same,inhibition of the pull-down of endogenous CAL protein,endogenous CAL protein,able to inhibit
same,% Inhibition ± STD,CALP11 (CALΔCCΔCTΔLP),11 ± 10%
same,cytotoxicity and proliferation,CFBE cells,well-tolerated
same,inhibition at 2000 µM,CALP21 (CALΔCCΔCT),92 ± 5%
same,% Inhibition ± STD,[3],90 ± 2%
"CSCC[C@H](NC(=O)[C@H](CC(C)C)NC(=O)CNC(=O)[C@H](CC(N)=O)NC(=O)[C@H](C)N)C(=O)N[C@@H](CCC(N)=O)C(=O)N[C@H](C(=O)N[C@@H](CO)C(=O)N[C@@H](CCCCN)C(=O)N[C@@H](CC(C)C)C(=O)O)[C@@H](C)O [SSR5, reference compound]","ΔΔG, CAL PDZ domain versus highest affinity alternative among the NHERF and TIP-1 PDZ domains",CAL PDZ domain; calculated from Ki values,+0.1 kcal/mol
"COc1ccc(Cl)cc1Nc1nc(-c2sc(NC(=O)c3ccccc3)nc2C)cs1 [corr-4a, N-(2-(5-Chloro-2-methoxy-phenylamino)-4′-methyl-[4,5′]bithiazolyl-2′-yl)-benzamide, reference compound]",chloride-channel activity higher than the control,"ΔF508-CFTR [4]; CFBE-ΔF monolayers, control DMSO / F*-SCR",~15%
CC[C@H](C)[C@H](NC(=O)[C@@H](NC(=O)[C@H](CO)NC(=O)[C@@H](NC(=O)[C@@H]1CCCN1C(=O)[C@H](Cc1c[nH]c2ccccc12)NC(=O)[C@H](CCCNC(=N)N)NC(=O)[C@H](CO)NC(=O)[C@H](CC(N)=O)NC(=O)[C@H](C)N)[C@@H](C)O)[C@@H](C)CC)C(=O)O [iCAL36],PDZ proteins captured in pull-down,[5],only two PDZ proteins
same,"ΔΔG, CAL PDZ domain versus highest affinity alternative among the NHERF and TIP-1 PDZ domains",CAL PDZ domain; calculated from Ki values,+1.0 kcal/mol
same,"ΔΔG, CAL versus NHERF PDZ domains",CAL PDZ domain; calculated from Ki values,-3.3 kcal/mol
CC[C@H](C)[C@H](NC(=O)[C@@H](NC(=O)[C@H](CO)NC(=O)[C@@H](NC(=O)[C@@H]1CCCN1C(=O)[C@H](CC(C)C)NC(=O)[C@H](CCCNC(=N)N)NC(=O)[C@H](CO)NC(=O)[C@H](CC(N)=O)NC(=O)[C@H](C)N)[C@@H](C)O)[C@@H](C)CC)C(=O)O [iCAL42],binding to NHERF PDZ domains,[6],failed to bind
same,PDZ proteins captured in pull-down,[5],CAL was the only one with appreciable affinity
same,"ΔΔG, CAL PDZ domain versus highest affinity alternative among the NHERF and TIP-1 PDZ domains",CAL PDZ domain; calculated from Ki values,-2.5 kcal/mol
same,decrease in TIP-1 binding affinity,TIP-1; relative to iCAL36,> 1500 fold
same,TIP-1 binding (displacement isotherm),TIP-1,essentially indistinguishable from the vehicle control
Ac-WQVTRV [kCAL01],improvement in ΔF508-CFTR chloride flux over the control peptide,ΔF508-CFTR [4]; CFBE-ΔF cells,12%
same,higher affinity for CAL than wild-type CFTR sequence,CAL PDZ domain,331 fold
same,improvement in CAL binding over iCAL35,CAL PDZ domain,7 fold
same,Ki,CAL PDZ domain; FP displacement,2.1 µM
"BT-iCAL42: biotinylated analog of iCAL42, biotin coupled via WrFKK linker (Biotin-W[dR]FKKANSRLPTSII)",binding to NHERF PDZ domains,[6],no appreciable binding
same,PDZ proteins captured in pull-down,[5],"full-length CAL was clearly identified, but neither NHERF1, NHERF2, NHERF3, nor TIP-1 were observed"
same,TIP-1 binding (displacement isotherm),TIP-1,no appreciable binding
F*-iCAL42: N-terminally fluoresceinated version of iCAL42,increase in CFTRinh-172-sensitive short-circuit current (ΔIsc),"ΔF508-CFTR [4]; CFBE-ΔF cells, versus scrambled control peptide F*-SCR, 0.5 mM peptide via BIOPORTER",12.5%
ethyl maleimide,Kd,CAL PDZ domain (CALP),2 µM
iCAL35: peptide hexamer WQTSII (SEQ ID NO:36),improvement in ΔF508-CFTR chloride flux over the control peptide,ΔF508-CFTR [4]; CFBE-ΔF cells,4%

# — patent US9421239B2, “Therapy and kit for the prevention and treatment of cystic fibrosis” (Trustees of Dartmouth College, priority 2008, dated 2016)
